Peptide text beside a SMILES is read from it.
Experiments:
cathepsin E [1] = target: T1, cathepsin E (Rattus norvegicus, UniProt P16228); test: Affinity determination by SPR (Biacore2000); type: binding; conditions: cathepsin E immobilized on CM5 chip, peptide 10-40 nM, running buffer pH 7.4, 1:1 Langmuir fit
T1 construct: Cathepsin E was isolated from rat spleens as previously described; from tissue; host or cells: rat spleen
T1 sequence (P16228 59-398): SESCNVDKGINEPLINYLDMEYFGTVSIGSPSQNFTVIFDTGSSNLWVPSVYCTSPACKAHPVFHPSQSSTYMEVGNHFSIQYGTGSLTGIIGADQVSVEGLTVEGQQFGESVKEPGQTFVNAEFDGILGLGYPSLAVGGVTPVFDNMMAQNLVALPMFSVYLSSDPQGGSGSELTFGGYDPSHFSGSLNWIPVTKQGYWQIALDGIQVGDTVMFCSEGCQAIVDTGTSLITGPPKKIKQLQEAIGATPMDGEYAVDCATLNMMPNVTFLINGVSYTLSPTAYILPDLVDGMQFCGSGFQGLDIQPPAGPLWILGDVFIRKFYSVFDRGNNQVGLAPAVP
Description: (§1) Cathepsin E was isolated from rat spleens as previously described. The fluorogenic substrate for cathepsin E at neutral pH (pH 7.4) was the same as previously reported. The fluorogenic substrate (10 mM) was prepared by dissolving in 100% DMSO and diluting in reaction buffer immediately before use.
The dissociation constant (K d) of each selected peptide with cathepsin E was determined by the SPR method using a Biacore2000 (GE Healthcare, UK). Cathepsin E was immobilized on a CM5 Biacore sensor chip (GE Healthcare, UK) by the general amine coupling method. A small quantity of acetate buffer (50 mM sodium acetate, 100 mM NaCl, pH 4.5) containing cathepsin E (150 μg/mL) was injected into the flow cell for the sample lane. The reference lane was prepared similarly but without cathepsin E. Different concentrations (10, 20, 30, and 40 nM) of the selected peptide candidates, T4 and T11 were injected into both lanes at a flow rate of 20 ul/min to measure the interaction between cathepsin E and each peptide candidate. For all experiments, a neutral pH buffer (50 mM Tris-HCl, 100 mM NaCl, pH 7.4) was used as the running buffer and a solution of 50 mM NaOH was used to remove the peptides. The resulting sensorgram curves were fit to a 1 : 1 Langmuir binding model, and the K d values were calculated using BIA evaluation software (GE Healthcare, UK).

cathepsin E [2] = target: T1, cathepsin E; test: Cathepsin E protease activity assay (fluorogenic substrate, neutral pH); type: biochemical; conditions: 20 nM cathepsin E + 20 nM peptide; for Activity (%), value in parentheses: Table 2, value in parentheses
Description: as §1
Activation of cathepsin E by the selected peptides was determined as previously described. The selected peptides were prepared by in vitro translation or chemical synthesis. A solution containing 20 nM cathepsin E was pre incubated with 20 nM of selected peptides in Selection buffer (50 mM Tris-HCl, 100 mM NaCl, pH 7.4) at 25°C for 10 min. Next, the fluorogenic substrate was added (5 μM) and the mixture was incubated at 37°C for 1 h for the enzyme reaction. The fluorescent reaction product was monitored at 440 nm (excitation at 340 nm) using Infinite 200 (TECAN, Japan). The percent of cathepsin E activation (A) was calculated by: (1) A = 100×(Sf−Bf)/(Cf−Bf) [% activation], where S f was the fluorescence intensity of the cathepsin E reaction in the presence of a selected peptide, C f was the fluorescence intensity of the control in the absence of a selected peptide, and B f was background fluorescence of the solution containing the fluorogenic substrate only.

[3] = test system: caspase-3/7 activity in HeLa cells; test: Apo-ONE Homogeneous Caspase-3/7 assay in HeLa cells; type: cell-based; conditions: for Caspase-3/7 activity: three independent experiments
Description: HeLa cells were used for an in vitro cell-based bioassay. Approximately 10,000 HeLa cells were seeded into the wells of a 96-well culture plate (Corning, USA) containing 100 uL of DMEM medium supplemented with 10% FBS and 2% penicillin-streptomycin and incubated overnight at 37°C under 5% CO2. […] After incubation, viable cells were determined with a Cell Counting Kit-F (Dojindo Molecular Technologies, Japan) according to the manufacturer's protocol. Viable cells were identified by their fluorescent emissions intensity using an Infinite 200 (TECAN, Japan) with excitation at 490 nm and emission at 515 nm. To detect apoptotic cells, cells were treated with Annexin V-Cy3 (BioVision, USA) following the manufacturer's protocol. Apoptotic cells were detected by their fluorescent emissions with excitation at 543 nm and emission at 570 nm. To detect caspase-3/7 activity induced by cathepsin E, an Apo-ONE Homogeneous Caspase-3/7 Assay kit (Promega, USA) was used according to the manufacturer's protocol. Activity was detected by fluorescent emissions with excitation at 485 nm and emission at 530 nm. The cathepsin E and selected peptide concentrations used for apoptosis and caspase assays were the same as those used for cell viability assays.

HeLa cells = test: HeLa cell death assay (Cell Counting Kit-F viability, Annexin V-Cy3 apoptosis); type: cell-based
Description: HeLa cells were used for an in vitro cell-based bioassay. Approximately 10,000 HeLa cells were seeded into the wells of a 96-well culture plate (Corning, USA) containing 100 uL of DMEM medium supplemented with 10% FBS and 2% penicillin-streptomycin and incubated overnight at 37°C under 5% CO2. The cells were treated with cathepsin E (77 nM) alone or together with two different concentrations (770 nM, 7.7 μM) of the selected peptide T11 in 100 μL of serum-free Opti-MEM at 37°C for 20 h. After incubation, viable cells were determined with a Cell Counting Kit-F (Dojindo Molecular Technologies, Japan) according to the manufacturer's protocol. Viable cells were identified by their fluorescent emissions intensity using an Infinite 200 (TECAN, Japan) with excitation at 490 nm and emission at 515 nm. To detect apoptotic cells, cells were treated with Annexin V-Cy3 (BioVision, USA) following the manufacturer's protocol. Apoptotic cells were detected by their fluorescent emissions with excitation at 543 nm and emission at 570 nm. To detect caspase-3/7 activity induced by cathepsin E, an Apo-ONE Homogeneous Caspase-3/7 Assay kit (Promega, USA) was used according to the manufacturer's protocol. Activity was detected by fluorescent emissions with excitation at 485 nm and emission at 530 nm. […]

peptide T4 = target: T2, peptide T4; test: SPR
T2 chain: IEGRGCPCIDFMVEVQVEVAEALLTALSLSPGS

[4] = pH 7.4, 37°C 1 h, peptide by in vitro translation (italic) or chemical synthesis
[5] = Table 1, cathepsin E activity alone = 100%, pH 7.4, pre-incubation 25°C 10 min, 5 μM substrate, 37°C 1 h, peptide by in vitro translation (italics) or chemical synthesis
[6] = Table 2, value outside parentheses, pH 7.4, 37°C 1 h, peptide by in vitro translation (italic) or chemical synthesis

Molecule: CC[C@H](C)[C@H](N)C(=O)N[C@@H](CCC(=O)O)C(=O)NCC(=O)N[C@@H](CCCNC(=N)N)C(=O)NCC(=O)N[C@@H](CS)C(=O)N1CCC[C@H]1C(=O)N[C@@H](CS)C(=O)N[C@H](C(=O)N[C@@H](CC(=O)O)C(=O)N[C@@H](Cc1ccccc1)C(=O)N[C@@H](CCSC)C(=O)N[C@H](C(=O)N[C@@H](CCC(=O)O)C(=O)N[C@H](C(=O)N[C@@H](CCC(N)=O)C(=O)N[C@H](C(=O)N[C@@H](CCC(=O)O)C(=O)N[C@H](C(=O)N[C@@H](C)C(=O)N[C@@H](CCC(=O)O)C(=O)N[C@@H](C)C(=O)N[C@@H](CC(C)C)C(=O)N[C@@H](CC(C)C)C(=O)N[C@H](C(=O)N[C@@H](C)C(=O)N[C@@H](CC(C)C)C(=O)N[C@@H](CO)C(=O)N[C@@H](CC(C)C)C(=O)N[C@@H](CO)C(=O)N1CCC[C@H]1C(=O)NCC(=O)N[C@@H](CO)C(=O)O)[C@@H](C)O)C(C)C)C(C)C)C(C)C)C(C)C)[C@@H](C)CC [Peptide T4] (H-IEGRGCPCIDFMVEVQVEVAEALLTALSLSPGS-OH)
- Kd (cathepsin E [1]; read-out: dissociation constant (Kd) with cathepsin E): 2 nM
- Activity (%), value in parentheses (cathepsin E [2]; [4]): 122%

Molecule: GSPCIGII [Peptide S2]
- Activity (%) (cathepsin E [2]; [5]): 133%

Molecule: IEGRLLSGGAGACSVRTVDDSFDCG [Peptide T11, paired peptide selected from the third library; chemically synthesized, more than 95% purity]
- Caspase-3/7 activity ([3]; 77 nM cathepsin E + 7.7 μM peptide T11, 24 h): 188%
- Caspase-3/7 activation ([3]; T11 added without cathepsin E): not observed
- percentage of dying cells (HeLa cells; 77 nM cathepsin E with T11 (770 nM, 7.7 μM) versus without T11, 20 h (Figures 3a, 3b)): significantly higher
- effect on cells (HeLa cells; peptide alone (without cathepsin E)): no effect
- dissociation constant (Kd) with cathepsin E (cathepsin E [1]): too weak to be determined
- Activity (%), value in parentheses (cathepsin E [2]; [4]): 138%

Molecule: IEGRVGCDFMYVG [Peptide S1]
- Activity (%) (cathepsin E [2]; [5]): 130%

Molecule: IGCEERSFPNIIIIIG [Peptide S8]
- Activity (%) (cathepsin E [2]; [5]): 168%

Molecule: PGIKIIIIG [Peptide S4]
- Activity (%) (cathepsin E [2]; [5]): 151%

Molecule: PGIKPPPCIIIIG [Peptide S10]
- Activity (%) (cathepsin E [2]; [5]): 145%

Molecule: SDDKSTTLVEVQVEVAEELWRHYHYLLHG [Peptide T6, peptide selected from the paired peptide (third) library]
- Activity (%) (cathepsin E [2]; [6]): 118%

Molecule: SGIKVGCDPPSCG [Peptide S9]
- Activity (%) (cathepsin E [2]; [5]): 140%

Molecule: SPIISHIVGCDPPSCG [Peptide S7]
- Activity (%) (cathepsin E [2]; [5]): 160%

Molecule: SYKDSCIGGRGSGGGPGGIPGRIGYIG [Peptide T7, peptide selected from the paired peptide (third) library]
- Activity (%) (cathepsin E [2]; [6]): 111%

B1: Cathepsin E (protein)
chain: SESCNVDKGINEPLINYLDMEYFGTVSIGSPSQNFTVIFDTGSSNLWVPSVYCTSPACKAHPVFHPSQSSTYMEVGNHFSIQYGTGSLTGIIGADQVSVEGLTVEGQQFGESVKEPGQTFVNAEFDGILGLGYPSLAVGGVTPVFDNMMAQNLVALPMFSVYLSSDPQGGSGSELTFGGYDPSHFSGSLNWIPVTKQGYWQIALDGIQVGDTVMFCSEGCQAIVDTGTSLITGPPKKIKQLQEAIGATPMDGEYAVDCATLNMMPNVTFLINGVSYTLSPTAYILPDLVDGMQFCGSGFQGLDIQPPAGPLWILGDVFIRKFYSVFDRGNNQVGLAPAVP
- Caspase-3/7 activity ([3]; 77 nM cathepsin E alone, 24 h): 155%
- Kd (peptide T4): 2 nM
